Source: a melting point compilation (Tetko et al.; mined from patent text by program, amines drawn as free bases though some values may be those of a salt)

| melting point | Compound |
| --- | --- |
| 120 °C | CCOC(=O)c1cc2c([nH]1)c(N(C)S(=O)(=O)c1cccs1)cn2Cc1ccccc1 |
| 245 to 246 °C | Cc1nn2c(-c3cccnc3)ccnc2c1C#N |
| 139 to 140 °C | COC(=O)c1cc(-c2nc(COc3ccc(CCl)cc3OC)c(C)o2)ccc1C |
| 198 to 203 °C | Cc1ccc(N2C(=O)C(O)=C(C(=O)c3ccc(C(C)C)cc3)C2c2ccc(N3CCN(C)CC3)cc2)nn1 (centres undefined) |
| 208 to 210 °C | NC(=O)c1ccc(NC2CCOCC2)cc1 |
| 102 to 105 °C | COc1ccc(-c2nc(C(=O)O)cn2-c2ccc(OC)cc2)cc1 |
| 111 to 112 °C | COc1ccc2c(-c3ccccc3)c(C(=O)c3ccccc3OC)sc2c1 |
| 155 to 158 °C | C[C@H]1C=CC2=C[C@@H](O)C[C@H](OC(=O)C(C)(C)Oc3ccccc3)[C@@H]2[C@H]1CC[C@@H]1C[C@@H](O)CC(=O)O1 |
| 134 to 137 °C | O=C1c2c(OCc3ccccc3)cccc2-c2nn(CCN(CCO)Cc3ccccc3)c3ccc(NCCNCCO)c1c23 |
| 167 to 168 °C | CNC(CC(=O)O)c1ccccc1 (centres undefined) |
| 122 to 123 °C | CCCC[C@H]1COC(c2ccc(OCCCCCCCc3cc(C)no3)cc2)=N1 |
| > 240 °C | Cc1nc2c(c(=O)[nH]1)-c1cc(S(=O)(=O)Nc3ccc([N+](=O)[O-])cc3)ccc1CC2 |
| 177 °C | Nc1nc(/C(=N/OCC(=O)N2CCCCC2)C(=O)O)cs1 |
| 178 to 180 °C | CCn1cc(C(=O)NCCc2ccccc2)c(=O)c2cnc(N3CCCC3)nc21 |
| 99 to 102 °C | Clc1cc2c(cc1Cn1ccnc1)OCO2 |
| 175 °C | CCOC(=O)COc1cccc(-c2nnc(Nc3cccc(Br)c3)s2)c1 |
| 111 to 113 °C | O=CNCC(=O)c1ccc(Cl)s1 |
| 106 to 108 °C | CCOc1cc(-n2nc(C)c(Cl)c2C)c(F)cc1Cl |
| 118 to 120 °C | Cc1cc2nccn2nc1OCCCS(=O)(=O)N1CCN(C)CC1 |
| 198 to 199 °C | CCNCC1CCN(c2c(F)c(C)c3c(=O)c(C(=O)O)cn(C4CC4)c3c2F)C1 (centres undefined) |
| 111 to 113 °C | CN1C(=O)C=C(c2cccc(Cl)c2)C1=O |
| 139 to 141 °C | Oc1ccc2cc(OCCN3CCC(Cc4ccccc4)CC3)ccc2c1 |
| 240 to 248 °C | Cc1ccc2c(c1)nnn2C1(c2ccccc2)OC(=O)c2cccc([N+](=O)[O-])c21 (centres undefined) |

| melting point | Compound |
| --- | --- |
| 244 to 246 °C | c1ccc(Cn2cc(-c3ncc(-c4ccc5cc(OCc6nnn[nH]6)ccc5c4)o3)c3ccccc32)cc1 |
| 253 to 254 °C | O=C1CCCC2=C1C(c1ccc(Cl)cc1)C1=C(CCCC1)N2 (centres undefined) |
| 167 to 168 °C | NC(=O)c1cc(-c2ncc(C(F)(F)F)cc2Cl)ccc1Cl |
| 88 to 91 °C | CS(=O)(=O)c1ccc(-n2cc(-c3ccc(F)cc3)nc2-c2ccccn2)cc1 |
| 156 °C | Clc1ccc(C2(Cn3ccnc3)OCC(COc3ccc(-c4ccccc4)cc3)O2)c(Cl)c1 (centres undefined) |
| 46 °C | O=C(CBr)c1ccc(Sc2ccccc2)cc1 |
| 220 to 225 °C | CCc1ccc2c(c1)C=Cc1cc(C)ccc1C2c1cn(-c2ccnc(NCC(=O)Nc3nnn[nH]3)n2)c(=O)[nH]c1=O (centres undefined) |
| 125 to 127 °C | CCOC(=O)c1c(C(C)(C)O)nc(SC)n1Cc1ccc(-c2ccccc2-c2nnnn2C(c2ccccc2)(c2ccccc2)c2ccccc2)cc1 |
| 102 to 104 °C | CCOC(=O)CNc1c(C)cc(C(O)(C(F)(F)Cl)C(F)(F)Cl)cc1C |
| 143 to 144 °C | N#Cc1nn(-c2c(Cl)cc(OC(F)(F)F)cc2Cl)cc1C(Cl)=C(Cl)Br |
| 224 to 226 °C | Cc1sc(N2CCCCC2)nc1C=Cc1cn(-c2ccccc2)nc1O |
| 103 to 105 °C | Cc1ccccc1Nc1cccc(-c2ccccc2)c1CN |
| 162 to 163 °C | Cc1ccc(-c2nn(Cc3ccccc3)c(N)c2C#N)cc1 |
| 90 to 92.5 °C | C=CCc1ccc(C(=O)CCC(=O)OC)cc1O |
| 130 to 132 °C | CCc1nc2c(cnn2CC)c(NC2CCOCC2)c1CNC(=O)c1cccc(C(=O)NCc2ccc(OC)c(Br)c2)c1 |
| 247 to 250 °C | COC(=O)C1CN2c3c(cc(F)c(OS(C)(=O)=O)c3CCN2C)C1=O (centres undefined) |
| 80 to 82 °C | CCOc1ccc2[nH]cc(CC(C)(C(=O)OC)[N+](=O)[O-])c2c1 (racemic) |
| 48 to 50 °C | OCc1cc(-c2ccccc2)no1 |
| 131 to 134 °C | Cn1nc(CS(C)(=O)=O)nc1NCCCOc1ccc(CN2CCCCC2)cc1 |
| 71 to 72 °C | CC(C)Sc1c(C2=NC(C)(C)CO2)oc(Br)c1Br |
| 178 to 180 °C | COc1cc2oc(=O)c3c(c2cc1N)CCN(CC(C)=O)C3 |
| 84 to 86 °C | Oc1ccccc1N1CCC(CNC[C@H]2COc3ccc(Cl)cc3O2)CC1 |
| 154 to 156 °C | CC(C)(C)OC(=O)NC(Cc1ccccc1)C(O)CNCC(O)C(Cc1ccc(OCc2ccccc2)cc1)NC(=O)OCc1ccccc1 (centres undefined) |

| melting point | Compound |
| --- | --- |
| 250 to 251 °C | O=C(Nc1ccc(C(=O)N2CCc3cn[nH]c3-c3ncccc32)cc1)c1ccccc1-c1ccccc1 |
| 294 to 296 °C | O=C(O)c1ccc(-c2nc3ccccc3s2)cc1 |
| 160 to 161 °C | COc1ccc(CN2C(=O)c3ccccc3C2=O)cc1OC |
| 250 to 254 °C | O=C(O)c1cccc(C(=O)O)c1S(=O)(=O)Nc1ccc(F)cc1C(F)(F)F |
| 109 to 111 °C | CCCCNC(=O)NS(=O)(=O)c1c(C(=O)OCC)c(Cl)nn1C |
| 159 to 161 °C | CCN1C(=O)C(C)(C)C(=O)N(C)c2cc(CN(CCn3ccc4oc(C)cc4c3=O)Cc3cccnc3Cl)ccc21 |
| 169 to 171 °C | COc1ccc(-n2nc(C(F)F)cc2-c2ccc(S(C)(=O)=O)cc2)cc1Cl |
| 166 to 167 °C | CON=C(C(=O)OC)c1ccccc1-c1nnc(-c2cccc(C)c2)o1 |
| 159 to 163 °C | Cc1[nH]c(C#N)c(C)c1-c1nc2ccc(C(=O)c3ccccc3)cc2[nH]1 |
| 169 to 170 °C | CC(C)Oc1c(C2=CC(C)(C)Oc3ccc(C#N)cc32)c(=O)c1=O |
| 97 to 98 °C | COc1nc2ccccc2cc1NC(=O)N1CCN(c2cccc(Cl)c2)CC1 |
| 126 to 127 °C | CC(C)NCC(O)COc1ccc(NC(=O)C(C)C)cc1C#N (centres undefined) |
| 78 °C | Nc1ccc(O)c(N)c1 |
| 153 to 155 °C | FC(F)(F)c1cccc2c(-c3ccccc3)c(Oc3ccccc3)cnc12 |
| 168 to 170 °C | CCn1c(=S)c2[nH]c(C(C)C)nc2n(CC)c1=O |
| 151 to 152 °C | CC1=C(C(=O)O)C(c2cccc([N+](=O)[O-])c2)C(C(=O)OCCNC(=O)c2cccnc2)=C(C)N1 (centres undefined) |
| 108 to 110 °C | O=C(O)c1cc(CO)ccc1O |
| 99 to 102 °C | CN1CCN(C)C(c2ccc([N+](=O)[O-])cc2)C1=O (centres undefined) |
| 80 to 83 °C | CCC1c2cc(Cl)ccc2-c2ccc(Cl)cc21 |
| 135 to 138 °C | CCCCCCCNC(=O)Nc1ccccc1CNCc1cc(C(C)(C)C)c(O)c(C(C)(C)C)c1 |
| 102 °C | OCc1cccnc1Nc1cccc(C(F)(F)F)c1 |
| 195 to 199 °C | O=CNc1ccc([N+](=O)[O-])cc1 |
| 94 to 95 °C | CCOC(=O)c1cn(Cc2ccc(OCc3csc(-c4ccccc4)n3)cc2)nc1-c1cccs1 |

| melting point | Compound |
| --- | --- |
| 180 to 182 °C | CO/N=C(\C)[C@H]1CC[C@H]2[C@@H]3CCC4=CC(=O)CC[C@]4(C)[C@H]3CC[C@]12C |
| 145 to 148 °C | O=C(O)c1cnn(-c2cccc(C(F)(F)F)c2)c1 |
| 132 to 133 °C | COc1ccc(C2CN(C)C(=O)O2)cc1OC (centres undefined) |
| 135 to 137 °C | CC(C)(C)c1ccc(N(Cc2cccc3ccccc23)c2ccccc2)cc1 |
| 190 to 194 °C | CS(=O)(=O)c1cc(C(=O)O)cc([N+](=O)[O-])c1Cl |
| 178 to 180 °C | CNC(=O)CC1CN=C(c2cc3cc(Oc4ccc(S(C)(=O)=O)nc4)ccc3[nH]2)S1 (centres undefined) |
| 46 to 48 °C | OC(CCCCCCCCOCc1ccccc1)c1ccc(OCc2ccccc2)c(OCc2ccccc2)c1 (centres undefined) |
| 247 °C | NS(=O)(=O)c1cc(C(=O)O)cc([N+](=O)[O-])c1Oc1ccc(OCc2ccccc2)cc1 |
| 188 to 190 °C | CN(C)S(=O)(=O)c1cc(-c2csc(=Nc3ccc(O)cc3)n2C)ccc1Cl |
| 88 to 90 °C | COc1cccc(-c2cc(-c3ccc(-c4c(Cc5ccccc5)sc5ccccc45)cc3)cc(Br)c2OCC(=O)O)c1 |
| 161 to 162 °C | CCOC(=O)C1=C(C)NC(C)=C(C(=O)OCC)C1c1cccc(F)c1F |
| 211 to 213 °C | CCNC(=O)NS(=O)(=O)c1cc2c(cc1OC)OCCC2CNC(=O)c1cc(Cl)ccc1OC (centres undefined) |
| 241 to 243 °C | CC(=O)c1cc2cccc(NS(=O)(=O)c3cccs3)c2[nH]1 |
| 214 °C | O=C(Nc1cccc2c1C(=O)N(C1CCN(c3ccncc3)CC1)C2=O)c1ccc(Cl)s1 |
| 90 to 93 °C | CN(C(CCn1c(=O)cc(Cl)n(C)c1=O)C(=O)NO)S(=O)(=O)c1ccc(Oc2ccccc2)cc1 (centres undefined) |
| 170 to 173 °C | NC(=O)CN1CCN(C(=O)c2cc(C(F)(F)F)cc(C(F)(F)F)c2)[C@H](Cc2c[nH]c3ccccc23)C1 |
| 133 to 135 °C | CSc1ccc(Nc2nc(=O)cc(N)n2-c2ccccc2)cc1 |
| 273 to 275 °C | CCOC(=O)CC[C@H](NC(=O)c1ccc(C(=Cc2cnc3nc(NC(=O)C(C)(C)C)nc(O)c3c2)COC2CCCCO2)cc1)C(=O)OCC (some centres undefined) |
| 128 to 132 °C | COC(=O)N1C[C@@H]2CN(c3ccc(N4C[C@H](CNC(C)=O)OC4=O)cc3F)C[C@@H]2C1 |
| 150 °C | CC1(C)CC(=O)C(C(=O)Nc2cccc(C(F)(F)F)c2)C(=O)O1 (centres undefined) |
| 95 to 96 °C | Cc1cc2ccccc2n1-c1ccc(OCc2ccccc2)cc1 |

| Compound | melting point |
| --- | --- |
| CC1(C)COP(N(CCCN(C2CC(C)(C)NC(C)(C)C2)P2OCC(C)(C)CO2)C2CC(C)(C)NC(C)(C)C2)OC1 | 102 °C |
| CON=C1CCC(C)(C)c2cc(C)c(-c3cc(C=C4SC(=O)NC4=O)ccc3N(C)C)cc21 | 254 to 256 °C |
| COC(=O)c1ccc(-c2ccc(-c3ccc4c(c3)C(C)(C)CCC4(C)C)n2C)cc1 | 104 to 105 °C |
| Clc1ccc2onc(CBr)c2c1 | 83 to 85 °C |
